# Laboratory results reported in patent publication US5298502A, “Method and composition for photodynamic treatment and detection of tumors” (priority 1991, dated 1994).
# Key:
# [1] = system: DBA/2 Ha mice with SMT-F subcutaneous tumors; assay: Proto IX content of tissues of tumor-bearing mice fed the agent (Example 6); format: in vivo
# Procedure: In this Example the enzyme-inhibiting agents were added to the feed of tumor-bearing mice; for some of the mice, used as a control, no agent was added to the feed. The mice were then sacrificed and their kidneys, intestines, adrenal glands, liver and tumor were removed and analyzed for their content of Proto IX. The following enzyme-inhibiting agents were employed: [drawing 10]
# More particularly, the mice were DBA/2 Ha mice which had been injected with SMT-F subcutaneous tumors on Day 0 in the right shoulder. The mice, individually housed, received untreated Purina Rodent Chow 5001 Mash on Day 1; thereafter on Days 2 through 10 the mice received the same Mash treated with 2000 ppm of the inhibiting agent being tested (or, for the controls, the same untreated Mash). The treatment of the Mash was effected by blending it with a small amount of an acetone solution of the agent to be tested. The mice were then sacrificed on Day 10, except for the mouse treated with the agent designated as 6j; the latter was sacrificed on Day 7. The tissues were refrigerated at 4° C. overnight, then blotted dry, and the fresh weight of each tissue sample was recorded. The tissues were then homogenized in 5 mL, or lo mL in the cases of intestines and liver, of acetone-0.1 N NH4 OH (9:I, v/v). The homogenates were then centrifuged at 1500 g and the supernatants were analyzed on a SPEX FAII2 spectrofluorometer; excitation 400 nm, emission 630 nm wavelengths, the optima for Proto IX. Proto IX accumulation was determined as CPS (fluorescent counts per second emitted) per gram of tissue. The results are tabulated below (results are averages for two mice for each treatment, except for treatments with agents 6f, 6h, 6i and 6j in each of which only one mouse was treated): […]
# [2] = LD50, single oral dose, rats; conditions: rat, in vivo, single oral dose in corn oil containing 15% of the agent, 14-day period
# [3] = Tolerance of intraperitoneal injection in mice; conditions: mouse, in vivo, ip, 60% corn oil and 40% DMSO, read-out: tolerated dose
# Procedure: c. In tests of the agent injected intraperitoneally in a mixture of 60% corn oil and 40% DMSO it was determined that the mice could tolerate a dose of 100 mg/kg.
# male Fisher 344 rat = assay: Proto IX levels in tissues of rat fed agent for 27 days; format: in vivo; conditions: feed containing 5000 ppm for 27 days
# From the text: In another test, a male Fisher 344 rat was fed for 27 days with feed containing 5000 ppm of agent 6c and then sacrificed.
# In the foregoing tests of rats and mice the animals were kept on a standard 12 hr. dark-12 hr. light cycle.
# HeLa cells = assay: Proto IX production in HeLa cells, extract of cells alone (Example 7); format: cell-based; conditions: Homo sapiens, 100 uM agent, first formula (background-subtracted), read-out: increase in the amount of Proto IX relative to the control
# Procedure: In a series of experiments along the lines of Examples 1 and 2, cultures of HeLa cells were incubated in the presence of 100 uM of various treating agents, listed below. The percentage given, next to each treating agent, indicates the increase in the amount of Proto IX produced in the presence of that treating agent relative to the amount produced by the control in the same experiment.
# As in Examples 1 and 2, the data for this Example 7 were based on measurements of fluorescence (e.g. in counts per second, "cps"). In this Example, however, the measurements were made on an extract of the cells alone (in contrast to Examples 1 and 2 in which the disrupted cells and culture medium together were extracted), the fluorometric medium was the one described in Example 5 (containing 1% Tween-20, 50 mM Tris-HCl, 1 mM EDTA and 1 mM dithioerythritol, pH 8.5), and a cps measurement of the fluorometric medium per se was also made. In calculating the foregoing data for this Example, the following formula was used to calculate the percentage increases: [formula] where Ca is the counts per second for the sample resulting from treatment with the agent, Cc is the counts per second for the control sample, and Cm is the counts per second for the fluorometric medium per se (i.e. the background fluoroescence). On reviewing the data it was observed that Cc -Cm for this set of experiments was […] compared to Cm; for instance, individual measured values were 49025 and 52069 for Cc and 4295 for Cm. […] Accordingly, the data were recalculated using the formula: [formula] with the following results: 6a 336%; 5b 148%; 6c 154%; 6d 510%; 6e 320%; 6f 280%; 6g 329%; 6h 178%; 6i 171%; 6j 185%; 7a 118%; 7b 142%; 7c 103%; 7d 128%; 7e 173%; 7f 118%; 7q 155%; 7h 118%.
# [4] = 2000 ppm in feed Days 2-10, sacrificed Day 10 (6j Day 7)
compound,measurement,setting,value
Cc1nn(-c2cc(NS(C)(=O)=O)c(Cl)cc2Cl)c(=O)n1C(F)F [Agent 6c],"concentration of Proto IX in tissue, Adrenal",[1]; 2000 ppm in feed,126 ug of Proto IX per gram of tis
same,"concentration of Proto IX in tissue, Intestine",[1]; 2000 ppm in feed,91 ug of Proto IX per gram of tis
same,"concentration of Proto IX in tissue, Kidneys",[1]; 2000 ppm in feed,148 ug of Proto IX per gram of tis
same,"concentration of Proto IX in tissue, Liver",[1]; 2000 ppm in feed,25 ug of Proto IX per gram of tis
same,"concentration of Proto IX in tissue, Tumor",[1]; 2000 ppm in feed,131 ug of Proto IX per gram of tis
same,"Proto IX Mean Cps per gram, Adrenal",[1]; [4],13790 Cps per gram × 10^3
same,"Proto IX Mean Cps per gram, Kidneys",[1]; [4],16186 Cps per gram × 10^3
same,"Proto IX Mean Cps per gram, Liver",[1]; [4],2739 Cps per gram × 10^3
same,"Proto IX Mean Cps per gram, Tumor",[1]; [4],14336 Cps per gram × 10^3
same,Weight of Tumor as excised,[1]; [4],157 mg
same,"Proto IX Mean Cps per gram, Intestine","[1]; 2000 ppm in feed, samples diluted with 3 parts basic acetone to one part sample",9937 Cps per gram × 10^3
same,LD50 at 336 h,[2],> 2600 mg/kg
same,MTD,[3],100 mg/kg
same,Proto IX level in muscle tissue,male Fisher 344 rat,only a small increase
same,"Proto IX levels in kidney, intestine, stomach and brain",male Fisher 344 rat,marked increases
same,Proto IX levels in tissues as compared to a control,male Fisher 344 rat,increased levels of Proto IX as compared to a control
same,activation at 100 µM,HeLa cells,297%
